Laboratory results taken from ChEMBL document CHEMBL4308841, “Synthesis, in vitro antiproliferative activity, and kinase inhibitory effects of pyrazole-containing diarylureas and diarylamides” (Eur J Med Chem, 2018).

Assays:
MCF7 = assay: Growth inhibition of human MCF7 cells assessed as cell growth at 0.1 uM incubated for 48 hrs by sulforhodamine B assay relative to control; assay type: functional; details: MCF7, 48 h, read-out: Activity
MDA-MB-231 [1] = assay: Growth inhibition of human MDA-MB-231 cells assessed as cell growth at 100 uM incubated for 48 hrs by sulforhodamine B assay relative to control; assay type: functional; details: MDA-MB-231, 48 h, read-out: Activity
NCI-H460 = assay: Growth inhibition of human NCI-H460 cells assessed as cell growth at 0.1 uM incubated for 48 hrs by sulforhodamine B assay relative to control; assay type: functional; details: NCI-H460, 48 h, read-out: Activity
Malme-3M = assay: Growth inhibition of human MALME-3M cells assessed as cell growth at 0.01 uM incubated for 48 hrs by sulforhodamine B assay relative to control; assay type: functional; details: read-out: Activity
KM12 = assay: Growth inhibition of human KM12 cells assessed as cell growth at 100 uM incubated for 48 hrs by sulforhodamine B assay relative to control; assay type: functional; details: KM12, 48 h, read-out: Activity
DU-145 [2] = assay: Growth inhibition of human DU145 cells assessed as cell growth at 100 uM incubated for 48 hrs by sulforhodamine B assay relative to control; assay type: functional; details: DU-145, 48 h, read-out: Activity
CAKI-1 = assay: Growth inhibition of human Caki1 cells assessed as cell growth at 0.01 uM incubated for 48 hrs by sulforhodamine B assay relative to control; assay type: functional; details: CAKI-1, 48 h, read-out: Activity
SNB-75 = assay: Growth inhibition of human SNB75 cells assessed as cell growth at 1 uM incubated for 48 hrs by sulforhodamine B assay relative to control; assay type: functional; details: SNB-75, 48 h, read-out: Activity
MDA-MB-435 = assay: Growth inhibition of human MDA-MB-435 cells assessed as cell growth at 1 uM incubated for 48 hrs by sulforhodamine B assay relative to control; assay type: functional; details: MDA-MB-435, 48 h, read-out: Activity
SK-MEL-28 = assay: Growth inhibition of human SK-MEL-28 cells incubated for 48 hrs by sulforhodamine B assay; assay type: functional, cell-based; details: SK-MEL-28, 48 h
T47D [3] = assay: Growth inhibition of human T47D cells incubated for 48 hrs by sulforhodamine B assay; assay type: functional, cell-based
T47D [4] = assay: Growth inhibition of human T47D cells assessed as cell growth at 1 uM incubated for 48 hrs by sulforhodamine B assay relative to control; assay type: functional; details: read-out: Activity
T47D [5] = assay: Growth inhibition of human T47D cells assessed as cell growth at 0.1 uM incubated for 48 hrs by sulforhodamine B assay relative to control; assay type: functional; details: read-out: Activity
MDA-MB-231 [6] = assay: Growth inhibition of human MDA-MB-231 cells incubated for 48 hrs by sulforhodamine B assay; assay type: functional, cell-based; details: MDA-MB-231, 48 h
RXF 393 = assay: Growth inhibition of human RXF393 cells assessed as cell growth at 1 uM incubated for 48 hrs by sulforhodamine B assay relative to control; assay type: functional; details: RXF 393, 48 h, read-out: Activity
HCT-116 [7] = assay: Growth inhibition of human HCT116 cells incubated for 48 hrs by sulforhodamine B assay; assay type: functional, cell-based; details: HCT-116, 48 h
A498 = assay: Growth inhibition of human A498 cells assessed as cell growth at 0.01 uM incubated for 48 hrs by sulforhodamine B assay relative to control; assay type: functional; details: A498, 48 h, read-out: Activity
NCI/ADR-RES = assay: Growth inhibition of human NCI/ADR-RES cells assessed as cell growth at 0.1 uM incubated for 48 hrs by sulforhodamine B assay relative to control; assay type: functional; details: read-out: Activity
ACHN = assay: Growth inhibition of human ACHN cells assessed as cell growth at 0.1 uM incubated for 48 hrs by sulforhodamine B assay relative to control; assay type: functional; details: read-out: Activity
UACC-62 [8] = assay: Growth inhibition of human UACC62 cells assessed as cell growth at 100 uM incubated for 48 hrs by sulforhodamine B assay relative to control; assay type: functional; details: UACC-62, 48 h, read-out: Activity
SF-295 = assay: Growth inhibition of human SF295 cells incubated for 48 hrs by sulforhodamine B assay; assay type: functional, cell-based; details: SF-295, 48 h
UACC-62 [9] = assay: Growth inhibition of human UACC62 cells assessed as cell growth at 1 uM incubated for 48 hrs by sulforhodamine B assay relative to control; assay type: functional; details: UACC-62, 48 h, read-out: Activity
OVCAR-8 = assay: Growth inhibition of human OVCAR8 cells assessed as cell growth at 0.01 uM incubated for 48 hrs by sulforhodamine B assay relative to control; assay type: functional; details: OVCAR-8, 48 h, read-out: Activity
DU-145 [10] = assay: Growth inhibition of human DU145 cells assessed as cell growth at 1 uM incubated for 48 hrs by sulforhodamine B assay relative to control; assay type: functional; details: DU-145, 48 h, read-out: Activity
A549 = assay: Growth inhibition of human A549/ATCC cells incubated for 48 hrs by sulforhodamine B assay; assay type: functional, cell-based; details: A549, 48 h
SK-MEL-2 = assay: Growth inhibition of human SK-MEL-2 cells assessed as cell growth at 100 uM incubated for 48 hrs by sulforhodamine B assay relative to control; assay type: functional; details: SK-MEL-2, 48 h, read-out: Activity
HCT-116 [11] = assay: Growth inhibition of human HCT116 cells assessed as cell growth at 0.1 uM incubated for 48 hrs by sulforhodamine B assay relative to control; assay type: functional; details: HCT-116, 48 h, read-out: Activity
IGROV-1 = assay: Growth inhibition of human IGROV1 cells assessed as cell growth at 0.1 uM incubated for 48 hrs by sulforhodamine B assay relative to control; assay type: functional; details: IGROV-1, 48 h, read-out: Activity
K562 = assay: Growth inhibition of human K562 cells assessed as cell growth at 0.01 uM incubated for 48 hrs by sulforhodamine B assay relative to control; assay type: functional; details: K562, 48 h, read-out: Activity
[12] = read-out: LC50 (the source's name)
[13] = read-out: pLC50 (the source's name) (converted)

## COc1cc(Cl)cc(-c2nn(-c3cccc(NC(=O)Nc4ccc(Cl)c(Cl)c4)c3)cc2-c2ccncc2)c1
MCF7
  growth at 0.1 µM: 94%
MDA-MB-231 [1]
  growth at 100 µM: -70%
NCI-H460
  growth at 0.1 µM: 100%
Malme-3M
  growth at 0.01 µM: 92%
KM12
  growth at 100 µM: -17%
DU-145 [2]
  growth at 100 µM: 13%
CAKI-1
  growth at 0.01 µM: 96%
SNB-75
  growth at 1 µM: 71%
MDA-MB-435
  growth at 1 µM: 85%
SK-MEL-28; read-out: GI50
  GI50: 2.96 µM
SK-MEL-28; [12]
  CC50: > 100 µM
SK-MEL-28; read-out: TGI
  TGI: 35.6 µM
SK-MEL-28; read-out: pGI50 (converted)
  GI50: 2.95 µM
SK-MEL-28; [13]
  CC50: > 100 µM
SK-MEL-28; read-out: pTGI (converted)
  TGI: 37.2 µM
T47D [3]; read-out: GI50
  GI50: 2.78 µM
T47D [3]; [12]
  CC50: > 100 µM
T47D [3]; read-out: TGI
  TGI: 15.9 µM
T47D [3]; read-out: pGI50 (converted)
  GI50: 2.75 µM
T47D [3]; [13]
  CC50: > 100 µM
T47D [3]; read-out: pTGI (converted)
  TGI: 19.1 µM
T47D [4]
  growth at 1 µM: 87%
T47D [5]
  growth at 0.1 µM: 94%
MDA-MB-231 [6]; read-out: GI50
  GI50: 1.87 µM
MDA-MB-231 [6]; [12]
  CC50: 1.5 µM
MDA-MB-231 [6]; read-out: TGI
  TGI: 45.2 µM
MDA-MB-231 [6]; read-out: pGI50 (converted)
  GI50: 1.86 µM
MDA-MB-231 [6]; [13]
  CC50: 15.8 µM
MDA-MB-231 [6]; read-out: pTGI (converted)
  TGI: 4.47 µM
RXF 393
  growth at 1 µM: 75%
HCT-116 [7]
  IC50: 2.02 µM
HCT-116 [7]; read-out: GI50
  GI50: 2.02 µM
HCT-116 [7]; [12]
  CC50: > 100 µM
HCT-116 [7]; read-out: TGI
  TGI: > 100 µM
HCT-116 [7]; read-out: pGI50 (converted)
  GI50: 2.04 µM
HCT-116 [7]; [13]
  CC50: > 100 µM
HCT-116 [7]; read-out: pTGI (converted)
  TGI: > 100 µM
A498
  growth at 0.01 µM: 96%
NCI/ADR-RES
  growth at 0.1 µM: 98%
ACHN
  growth at 0.1 µM: 96%
UACC-62 [8]
  growth at 100 µM: -32%
SF-295; read-out: GI50
  GI50: 1.37 µM
SF-295; [12]
  CC50: > 100 µM
SF-295; read-out: TGI
  TGI: 72.1 µM
SF-295; read-out: pGI50 (converted)
  GI50: 1.78 µM
SF-295; [13]
  CC50: > 100 µM
SF-295; read-out: pTGI (converted)
  TGI: 7.24 µM
UACC-62 [9]
  growth at 1 µM: 75%
OVCAR-8
  growth at 0.01 µM: 96%
DU-145 [10]
  growth at 1 µM: 93%
A549
  IC50: 1.48 µM
A549; read-out: GI50
  GI50: 1.48 µM
A549; [12]
  CC50: > 100 µM
A549; read-out: TGI
  TGI: 15.3 µM
A549; read-out: pGI50 (converted)
  GI50: 1.48 µM
A549; [13]
  CC50: > 100 µM
A549; read-out: pTGI (converted)
  TGI: 15.5 µM
SK-MEL-2
  growth at 100 µM: -70%
HCT-116 [11]
  growth at 0.1 µM: 100%
IGROV-1
  growth at 0.1 µM: 101%
K562
  growth at 0.01 µM: 101%
